Test system: phosphorylation of Serine 473 in Akt in MDA-MB-468 human breast adenocarcinoma cells
Assay: In vitro phospho-Ser473 Akt assay (Test (c))
Type: cell-based
Settings: Homo sapiens, MDA-MB-468, 2 h, MDA-MB-468 cells, 2 hours incubation; read-out: Test (c): IC50 versus Serine 473 in Akt
Method: (c) In Vitro Phospho-Ser473 Akt Assay
This assay determines the ability of test compounds to inhibit phosphorylation of Serine 473 in Akt as assessed using Acumen Explorer technology (Acumen Bioscience Limited), a plate reader that can be used to rapidly quantitate features of images generated by laser-scanning.
A MDA-MB-468 human breast adenocarcinoma cell line (LGC Promochem, Teddington, Middlesex, UK, Catalogue No. HTB-132) was routinely maintained at 37° C. with 5% CO2 up to a confluency of 70-90% in DMEM containing 10% heat-inactivated FCS and 1% L-glutamine.
For the assay, the cells were detached from the culture flask using ‘Accutase’ (Innovative Cell Technologies Inc., San Diego, Calif., USA; Catalogue No. AT104) using standard tissue culture methods and resuspended in media to give 1.7×10^5 cells per mL. Aliquots (90 μl) were seeded into each of the inner 60 wells of a black Packard 96 well plate (PerkinElmer, Boston, Mass., USA; Catalogue No. 6005182) to give a density of 15000 cells per well. Aliquots (90 μl) of culture media were placed in the outer wells to prevent edge effects. The cells were incubated overnight at 37° C. with 5% CO2 to allow them to adhere.
On day 2, the cells were treated with test compounds and incubated for 2 hours at 37° C. with 5% CO2. Test compounds were prepared as 10 mM stock solutions in DMSO and serially diluted as required with growth media to give a range of concentrations that were 10-fold the required final test concentrations. Aliquots (10 μl) of each compound dilution were placed in a well (in triplicate) to give the final required concentrations. As a minimum response control, each plate contained wells having a final concentration of 100 μM LY294002 (Calbiochem, Beeston, UK, Catalogue No. 440202). As a maximum response control, wells contained 1% DMSO instead of test compound. Following incubation, the contents of the plates were fixed by treatment with a 1.6% aqueous formaldehyde solution (Sigma, Poole, Dorset, UK, Catalogue No. F1635) at room temperature for 1 hour.
All subsequent aspiration and wash steps were carried out using a Tecan 96 well plate washer (aspiration speed 10 mm/sec). The fixing solution was removed and the contents of the plates were washed with phosphate-buffered saline (PBS; 50 μl; Gibco, Catalogue No. 10010015). The contents of the plates were treated for 10 minutes at room temperature with an aliquot (50 μl) of a cell permeabilisation buffer consisting of a mixture of PBS and 0.5% Tween-20. The ‘permeabilisation’ buffer was removed and non-specific binding sites were blocked by treatment for 1 hour at room temperature of an aliquot (50 μl) of a blocking buffer consisting of 5% dried skimmed milk [‘Marvel’ (registered trade mark); Premier Beverages, Stafford, GB] in a mixture of PBS and 0.05% Tween-20. The ‘blocking’ buffer was removed and the cells were incubated for 1 hour at room temperature with rabbit anti phospho-Akt (Ser473) antibody solution (50 μl per well; Cell Signalling, Hitchin, Herts, U.K., Catalogue No 9277) that had been diluted 1:500 in ‘blocking’ buffer. Cells were washed three times in a mixture of PBS and 0.05% Tween-20. Subsequently, cells were incubated for 1 hour at room temperature with Alexafluor488 labelled goat anti-rabbit IgG (50 μl per well; Molecular Probes, Invitrogen Limited, Paisley, UK, Catalogue No. A11008) that had been diluted 1:500 in ‘blocking’ buffer. Cells were washed 3 times with a mixture of PBS and 0.05% Tween-20. An aliquot of PBS (50 μl) was added to each well and the plates were sealed with black plate sealers and the fluorescence signal was detected and analysed.
Fluorescence dose response data obtained with each compound were analysed and the degree of inhibition of Serine 473 in Akt was expressed as an IC50 value.

| IC50 [nM] | SMILES |
| --- | --- |
| 260 | CCNC(=O)Nc1ccc(-c2nc(N3CCOC[C@@H]3C)cc(C(C)(C)S(C)(=O)=O)n2)cn1 [Example 24ai, 1-ethyl-3-[5-[4-[(3S)-3-methylmorpholin-4-yl]-6-(2-methylsulfonylpropan-2-yl)pyrimidin-2-yl]pyridin-2-yl]urea] |
| 380 | C[C@H]1COCCN1c1cc(CS(=O)(=O)C2CC2)nc(-c2ccc(NC(=O)NC(C)(C)CO)cc2)n1 [Example 57e, 1-[4-[4-(cyclopropylsulfonylmethyl)-6-[(3S)-3-methylmorpholin-4-yl]pyrimidin-2-yl]phenyl]-3-(1-hydroxy-2-methyl-propan-2-yl)urea] |
| 5600 | C[C@H]1COCCN1c1cc(C(C)(C)S(C)(=O)=O)nc(-c2ccc(NC(=O)NCc3ccn(C)n3)cc2)n1 [Example 24az, 1-[4-[4-[(3S)-3-methylmorpholin-4-yl]-6-(2-methylsulfonylpropan-2-yl)pyrimidin-2-yl]phenyl]-3-[(1-methylpyrazol-3-yl)methyl]urea] |
| 55 | C[C@H]1COCCN1c1cc(CS(=O)(=O)CCO)nc(-c2ccc(NC(=O)Nc3ccon3)cc2)n1 [Example 40a, 1-[4-[4-(2-hydroxyethylsulfonylmethyl)-6-[(3S)-3-methylmorpholin-4-yl]pyrimidin-2-yl]phenyl]-3-(1,2-oxazol-3-yl)urea] |
| 450 | C[C@H]1COCCN1c1cc(C(C)(C)S(C)(=O)=O)nc(-c2ccc(NC(=O)NC3CC3)nc2)n1 [Example 24aj, 3-cyclopropyl-1-[5-[4-[(3S)-3-methylmorpholin-4-yl]-6-(2-methylsulfonylpropan-2-yl)pyrimidin-2-yl]pyridin-2-yl]urea] |
| 300 | CC(C)S(=O)(=O)C(C)(C)c1cc(N2CCOC[C@@H]2C)nc(-c2ccc(NC(=O)NCCCO)cc2)n1 [Example 60s, 3-(3-hydroxypropyl)-1-[4-[4-[(3S)-3-methylmorpholin-4-yl]-6-(2-propan-2-ylsulfonylpropan-2-yl)pyrimidin-2-yl]phenyl]urea] |
| 37 | C[C@H]1COCCN1c1cc(CS(=O)(=O)CCO)nc(-c2ccc(NC(=O)NC3CCC3)cc2)n1 [Example 59a, 3-cyclobutyl-1-[4-[4-(2-hydroxyethylsulfonylmethyl)-6-[(3S)-3-methylmorpholin-4-yl]pyrimidin-2-yl]phenyl]urea] |
| 220 | C[C@H]1COCCN1c1cc(C(C)(C)S(C)(=O)=O)nc(-c2ccc(NC(=O)NCCCO)cc2)n1 [Example 24as, 3-(3-hydroxypropyl)-1-[4-[4-[(3S)-3-methylmorpholin-4-yl]-6-(2-methylsulfonylpropan-2-yl)pyrimidin-2-yl]phenyl]urea] |
| 320 | C[C@H]1COCCN1c1cc(C(C)(C)S(C)(=O)=O)nc(-c2cnc(NC(=O)NC3CC3)nc2)n1 [Example 24ag, 3-cyclopropyl-1-[5-[4-[(3S)-3-methylmorpholin-4-yl]-6-(2-methylsulfonylpropan-2-yl)pyrimidin-2-yl]pyrimidin-2-yl]urea] |
| 300 | C[C@H]1COCCN1c1cc(C(C)(C)S(=O)(=O)C(C)(C)C)nc(-c2ccc(NC(=O)NCCO)cc2)n1 [Example 66g, 3-(2-hydroxyethyl)-1-[4-[4-[(3S)-3-methylmorpholin-4-yl]-6-(2-tert-butylsulfonylpropan-2-yl)pyrimidin-2-yl]phenyl]urea] |
| 1000 | CC(C)S(=O)(=O)Cc1cc(N2CCOC[C@@H]2C)nc(-c2ccc(NC(=O)NC3CCC3)cc2)n1 [Example 60, 3-Cyclobutyl-1-[4-[4-[(3S)-3-methylmorpholin-4-yl]-6-(propan-2-ylsulfonylmethyl)pyrimidin-2-yl]phenyl]urea] |
| 450 | CC(C)CNC(=O)Nc1ccc(-c2nc(CS(=O)(=O)c3ccc(F)cc3)cc(N3CCOC[C@@H]3C)n2)cc1 [Example 61g, 1-[4-[4-[(4-fluorophenyl)sulfonylmethyl]-6-[(3S)-3-methylmorpholin-4-yl]pyrimidin-2-yl]phenyl]-3-(2-methylpropyl)urea] |
| 270 | CC(C)S(=O)(=O)C(C)(C)c1cc(N2CCOC[C@@H]2C)nc(-c2ccc(NC(=O)Nc3cnn(C)c3)cc2)n1 [Example 60v, 1-[4-[4-[(3S)-3-methylmorpholin-4-yl]-6-(2-propan-2-ylsulfonylpropan-2-yl)pyrimidin-2-yl]phenyl]-3-(1-methylpyrazol-4-yl)urea] |
| 210 | C[C@H]1COCCN1c1cc(CS(C)(=O)=O)nc(-c2ccc(NC(=O)Nc3cccc(=O)[nH]3)cc2)n1 [Example 22c, 1-[4-[4-[(3S)-3-methylmorpholin-4-yl]-6-(methylsulfonylmethyl)pyrimidin-2-yl]phenyl]-3-(6-oxo-1H-pyridin-2-yl)urea] |
| 38 | C[C@H]1COCCN1c1cc(CS(=O)(=O)c2ccncc2)nc(-c2ccc(NC(=O)NC3CCC3)cc2)n1 [Example 48, 3-Cyclobutyl-1-[4-[4-[(3S)-3-methylmorpholin-4-yl]-6-(pyridin-4-ylsulfonylmethyl)pyrimidin-2-yl]phenyl]urea] |
| 250 | CCNC(=O)Nc1ccc(-c2nc(CS(=O)(=O)c3ccncc3)cc(N3CCOC[C@@H]3C)n2)cc1 [Example 48a, 3-ethyl-1-[4-[4-[(3S)-3-methylmorpholin-4-yl]-6-(pyridin-4-ylsulfonylmethyl)pyrimidin-2-yl]phenyl]urea] |
| 840 | CNC(=O)Nc1ccc(-c2nc(CS(=O)(=O)C3CC3)cc(N3CCOC[C@@H]3C)n2)cc1 [Example 57d, 1-[4-[4-(cyclopropylsulfonylmethyl)-6-[(3S)-3-methylmorpholin-4-yl]pyrimidin-2-yl]phenyl]-3-methyl-urea] |
| 86 | CC(C)S(=O)(=O)C(C)(C)c1cc(N2CCOC[C@@H]2C)nc(-c2ccc(NC(=O)NC(C)(C)CO)cc2)n1 [Example 60o, 3-(1-hydroxy-2-methyl-propan-2-yl)-1-[4-[4-[(3S)-3-methylmorpholin-4-yl]-6-(2-propan-2-ylsulfonylpropan-2-yl)pyrimidin-2-yl]phenyl]urea] |
| 3400 | Cc1cc(CNC(=O)Nc2ccc(-c3nc(N4CCOC[C@@H]4C)cc(C(C)(C)S(C)(=O)=O)n3)cc2)no1 [Example 24aw, 3-[4-[4-[(3S)-3-methylmorpholin-4-yl]-6-(2-methylsulfonylpropan-2-yl)pyrimidin-2-yl]phenyl]-1-[(5-methyl-1,2-oxazol-3-yl)methyl]urea] |
| 120 | C[C@H]1COCCN1c1cc(CS(=O)(=O)c2ccc(F)cc2)nc(-c2ccc(NC(=O)NCCN(C)C)cc2)n1 [Example 61e, 3-(2-dimethylaminoethyl)-1-[4-[4-[(4-fluorophenyl)sulfonylmethyl]-6-[(3S)-3-methylmorpholin-4-yl]pyrimidin-2-yl]phenyl]urea] |
| 38 | CC(C)NC(=O)Nc1ccc(-c2nc(CS(=O)(=O)c3ccc(F)cc3)cc(N3CCOC[C@@H]3C)n2)cc1 [Example 61b, 1-[4-[4-[(4-fluorophenyl)sulfonylmethyl]-6-[(3S)-3-methylmorpholin-4-yl]pyrimidin-2-yl]phenyl]-3-propan-2-yl-urea] |
| 40 | C[C@H]1COCCN1c1cc(C(C)(C)S(=O)(=O)C(C)(C)C)nc(-c2ccc(NC(=O)NCCN(C)C)cc2)n1 [Example 66f, 3-(2-dimethylaminoethyl)-1-[4-[4-[(3S)-3-methylmorpholin-4-yl]-6-(2-tert-butylsulfonylpropan-2-yl)pyrimidin-2-yl]phenyl]urea] |
| 270 | C[C@H]1COCCN1c1cc(C(C)(C)S(=O)(=O)C2CC2)nc(-c2ccc(NC(=O)NCCO)cc2)n1 [Example 57i, 1-[4-[4-(2-cyclopropylsulfonylpropan-2-yl)-6-[(3S)-3-methylmorpholin-4-yl]pyrimidin-2-yl]phenyl]-3-(2-hydroxyethyl)urea] |

— US7750003B2, “Compounds-943” (AstraZeneca AB, priority 2006, dated 2010)
